# Results as given in patent US20110046104A1, “AMINOPYRIMIDINES USEFUL AS KINASE INHIBITORS” (VERTEX PHARMACEUTICALS INCORPORATED, priority 2007, published 2011).
# Molecular target: Aurora-1 (Aurora B) (Homo sapiens, UniProt Q96GD4)
# Experiment: Aurora-1 (Aurora B) inhibition assay (radiometric)
# Assay type: biochemical
# Conditions: 800 μM [γ-33P]-ATP, Kemptide, 25° C., 3 hours
# Description: An assay buffer solution was prepared which consisted of 25 mM HEPES (pH 7.5), 10 mM MgCl2, 0.1% BSA and 10% glycerol. A 22 nM Aurora-B solution, also containing 1.7 mM DTT and 1.5 mM Kemptide (LRRASLG), was prepared in assay buffer. To 22 μL of the Aurora-B solution, in a 96-well plate, was added 2 μl of a compound stock solution in DMSO and the mixture allowed to equilibrate for 10 minutes at 25° C. The enzyme reaction was initiated by the addition of 16 μl stock [γ-^33P]-ATP solution (˜20 nCi/μL) prepared in assay buffer, to a final assay concentration of 800 μM. The reaction was stopped after 3 hours by the addition of 16 μL 500 mM phosphoric acid and the levels of ^33P incorporation into the peptide substrate were determined by the following method.
# A phosphocellulose 96-well plate (Millipore, Cat no. MAPHNOB50) was pre-treated with 100 μL of a 100 mM phosphoric acid prior to the addition of the enzyme reaction mixture (40 μL). The solution was left to soak on to the phosphocellulose membrane for 30 minutes and the plate subsequently washed four times with 200 μL of a 100 mM phosphoric acid. To each well of the dry plate was added 30 μL of Optiphase ‘SuperMix’ liquid scintillation cocktail (Perkin Elmer) prior to scintillation counting (1450 Microbeta Liquid Scintillation Counter, Wallac). Levels of non-enzyme catalyzed background radioactivity were determined by adding 16 μL of the 500 mM phosphoric acid to control wells, containing all assay components (which acts to denature the enzyme), prior to the addition of the [γ-^33P]-ATP solution. Levels of enzyme catalyzed ^33P incorporation were calculated by subtracting mean background counts from those measured at each inhibitor concentration. For each Ki determination 8 data points, typically covering the concentration range 0-10 μM compound, were obtained in duplicate (DMSO stocks were prepared from an initial compound stock of 10 mM with subsequent 1:2.5 serial dilutions). Ki values were calculated from initial rate data by non-linear regression using the Prism software package (Prism 3.0, Graphpad Software, San Diego, Calif.).
# Aurora-1 (Aurora B), sequence (Q96GD4 whole entry): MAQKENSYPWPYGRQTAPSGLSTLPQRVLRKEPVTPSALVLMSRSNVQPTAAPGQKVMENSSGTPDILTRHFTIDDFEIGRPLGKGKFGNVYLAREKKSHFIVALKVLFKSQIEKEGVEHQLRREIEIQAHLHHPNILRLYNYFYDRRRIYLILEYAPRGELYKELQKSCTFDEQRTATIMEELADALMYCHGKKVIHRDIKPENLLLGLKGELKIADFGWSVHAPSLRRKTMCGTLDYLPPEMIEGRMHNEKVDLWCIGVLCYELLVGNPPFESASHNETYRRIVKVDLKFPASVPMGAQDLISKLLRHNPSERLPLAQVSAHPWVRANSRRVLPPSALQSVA
row,Ki [µM],Compound
1,< 0.5,"O=C(CC(F)(F)F)Nc1ccc(Sc2nc(Nc3nnc[nH]3)cc(N3CC[C@H](F)C3)n2)cc1 [Compound I-10, (S)—N-(4-(4-(4H-1,2,4-Triazol-3-ylamino)-6-(3-fluoropyrrolidin-1-yl)pyrimidin-2-ylthio)phenyl)-3,3,3-trifluoropropanamide]"
2,> 1.5,"O=C(CC(F)(F)F)Nc1ccc(Sc2nc(Nc3ccccn3)cc(N3CC[C@H](F)C3)n2)cc1 [Compound I-9, (S)-3,3,3-Trifluoro-N-(4-(4-(3-fluoropyrrolidin-1-yl)-6-(pyridin-2-ylamino)pyrimidin-2-ylthio)phenyl)propanamide]"
3,> 1.5,"O=C(CC(F)(F)F)Nc1ccc(Sc2nc(Nc3ncns3)cc(N3CC(F)(C4CC4)C3)n2)cc1 [Compound I-1, N-(4-(4-(1,2,4-thiadiazol-5-ylamino)-6-(3-cyclopropyl-3-fluoroazetidin-1-yl)pyrimidin-2-ylthio)phenyl)-3,3,3-trifluoropropanamide]"
4,> 1.5,"O=C(Nc1ccc(Sc2nc(Nc3ncns3)cc(N3CC(F)(C4CC4)C3)n2)cc1)C1CC1 [Compound I-4, N-(4-(4-(1,2,4-Thiadiazol-5-ylamino)-6-(3-cyclopropyl-3-fluoroazetidin-1-yl)pyrimidin-2-ylthio)phenyl)cyclopropanecarboxamide]"
5,< 0.5,"O=C(Nc1ccc(Sc2nc(Nc3ncns3)cc(N3CCC3)n2)cc1)c1ccccc1Cl [Compound I-7, N-(4-(4-(1,2,4-Thiadiazol-5-ylamino)-6-(azetidin-1-yl)pyrimidin-2-ylthio)phenyl)-2-chlorobenzamide]"
6,< 0.5,"O=C(CC(F)(F)F)Nc1ccc(Sc2nc(Nc3ccccn3)cc(N3CC(F)(C4CC4)C3)n2)cc1 [Compound I-3, N-(4-(4-(3-Cyclopropyl-3-fluoroazetidin-1-yl)-6-(pyridin-2-ylamino)pyrimidin-2-ylthio)phenyl)-3,3,3-trifluoropropanamide]"
7,> 1.5,"O=C(NCC(F)(F)F)c1ccc(Sc2nc(Nc3ncns3)cc(N3CC(F)(C4CC4)C3)n2)cc1 [Compound I-8, 4-(4-(1,2,4-Thiadiazol-5-ylamino)-6-(3-cyclopropyl-3-fluoroazetidin-1-yl)pyrimidin-2-ylthio)-N-(2,2,2-trifluoroethyl)benzamide]"
8,> 1.5,"O=C(CC(F)(F)F)Nc1ccc(Sc2nc(Nc3nnc[nH]3)cc(N3CC(F)(C4CC4)C3)n2)cc1 [Compound I-2, N-(4-(4-(4H-1,2,4-Triazol-3-ylamino)-6-(3-cyclopropyl-3-fluoroazetidin-1-yl)pyrimidin-2-ylthio)phenyl)-3,3,3-trifluoropropanamide]"
9,> 1.5,"O=C(CC(F)(F)F)Nc1ccc(Sc2nc(Nc3ncns3)cc(N3CC[C@H](F)C3)n2)cc1 [Compound I-11, (S)—N-(4-(4-(1,2,4-Thiadiazol-5-ylamino)-6-(3-fluoropyrrolidin-1-yl)pyrimidin-2-ylthio)phenyl)-3,3,3-trifluoropropanamide]"

# Molecular target: T1, Aurora-2 (Aurora A) (Homo sapiens, UniProt O14965)
# T1 sequence (O14965 1-403): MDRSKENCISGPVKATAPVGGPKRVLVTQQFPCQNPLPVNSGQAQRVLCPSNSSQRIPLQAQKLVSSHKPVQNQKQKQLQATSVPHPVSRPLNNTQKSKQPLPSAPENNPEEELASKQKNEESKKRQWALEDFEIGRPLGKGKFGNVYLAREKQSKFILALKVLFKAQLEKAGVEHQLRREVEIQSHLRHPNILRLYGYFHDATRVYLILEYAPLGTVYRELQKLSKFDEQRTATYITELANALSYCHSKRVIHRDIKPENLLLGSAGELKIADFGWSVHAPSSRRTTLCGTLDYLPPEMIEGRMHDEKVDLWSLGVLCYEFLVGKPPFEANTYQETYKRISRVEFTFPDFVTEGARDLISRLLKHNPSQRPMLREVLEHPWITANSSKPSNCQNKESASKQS
# Experiment: Aurora-2 (Aurora A) inhibition assay, coupled enzyme assay
# Assay type: biochemical
# Conditions: 400 μM ATP, 570 μM Kemptide, 40 nM Aurora-2, 30° C.
# Description: Compounds were screened for their ability to inhibit Aurora-2 using a standard coupled enzyme assay (Fox et al., Protein Sci., (1998) 7, 2249). Assays were carried out in a mixture of 100 mM Hepes (pH7.5), 10 mM MgCl2, 1 mM DTT, 25 mM NaCl, 2.5 mM phosphoenolpyruvate, 300 μM NADH, 30 μg/ml pyruvate kinase and 10 μg/ml lactate dehydrogenase. Final substrate concentrations in the assay were 400 μM ATP (Sigma Chemicals) and 570 μM peptide (Kemptide, American Peptide, Sunnyvale, Calif.). Assays were carried out at 30° C. and in the presence of 40 nM Aurora-2.
# An assay stock buffer solution was prepared containing all of the reagents listed above, with the exception of Aurora-2 and the test compound of interest. 55 μl of the stock solution was placed in a 96 well plate followed by addition of 2 μl of DMSO stock containing serial dilutions of the test compound (typically starting from a final concentration of 7.5 μM). The plate was preincubated for 10 minutes at 30° C. and the reaction initiated by addition of 10 μl of Aurora-2. Initial reaction rates were determined with a Molecular Devices SpectraMax Plus plate reader over a 10 minute time course. IC50 and Ki data were calculated from non-linear regression analysis using the Prism software package (GraphPad Prism version 3.0cx for Macintosh, GraphPad Software, San Diego Calif., USA).
row,Ki [µM],Compound
1,0.033,"O=C(CC(F)(F)F)Nc1ccc(Sc2nc(Nc3ncns3)cc(N3CC(F)(C4CC4)C3)n2)cc1 [Compound I-1, N-(4-(4-(1,2,4-thiadiazol-5-ylamino)-6-(3-cyclopropyl-3-fluoroazetidin-1-yl)pyrimidin-2-ylthio)phenyl)-3,3,3-trifluoropropanamide]"
